Columns and labels:
[1] = Viscosity of contrast medium solutions; assay type: physicochemical; settings: for Viscosity: 37° C.
Renal excretion = assay type: in vivo; settings: in words
mouse = assay: LD50 mouse i.v.; assay type: in vivo
Chemical stability = assay type: physicochemical; settings: in words
Water solubility = assay type: physicochemical; settings: in words
[2] = Osmolality of contrast medium solutions; assay type: physicochemical

SMILES	Viscosity ([1]; 370 mg I/ml)	LD50 (mouse)	Osmolality ([2]; 370 mg I/ml (37° C.))	Viscosity ([1]; 350 mg I/ml (*))	Osmolality ([2]; 350 mg I/ml (*) (37° C.))	also measured
CN(CC(O)CO)C(=O)c1c(I)c(NC(=O)CO)c(I)c(C(=O)NCCO)c1I (stereo not shown) [Example 1, 5-Hydroxyacetamido-2,4,6-triido-isophthalic acid-(2,3-dihydroxy-N-methyl-propyl)-(2-hydroxy-ethyl)-diamide]	6.6 cP	18 g I/kg	590 mosm/kg H2 O	–	–	Improvement of viscosity value ([1]; in comparison with iopromide): 30.5%; Renal excretion (Renal excretion): very quick, selective renal excretion; Chemical stability (Chemical stability): good chemical stability; Water solubility (Water solubility): very water-soluble; Improvement of osmolality value ([2]; in comparison with iopromide): 23.4%
CC(=O)N(CC(O)CO)c1c(I)c(C(=O)NCC(O)CO)c(I)c(C(=O)NCC(O)CO)c1I (stereo not shown) [Iohexol]	–	15 g I/kg	–	10.5 cP	820 mosm/kg H2 O	–
CN(C(=O)CO)c1c(I)c(C(=O)NCC(O)CO)c(I)c(C(=O)NCC(O)CO)c1I (stereo not shown) [Iomeprol]	8.6 cP	14 g I/kg	680 mosm/kg H2 O	–	–	Greatest improvement of osmolality within the previously known five contrast media ([2]; Iopamidol/Iomeprol (Iomeprol versus Iopamidol)): 18.1%
C[C@H](O)C(=O)Nc1c(I)c(C(=O)NC(CO)CO)c(I)c(C(=O)NC(CO)CO)c1I [Iopamidol]	9.4 cP	15 g I/kg	830 mosm/kg H2 O	–	–	–
COCC(=O)Nc1c(I)c(C(=O)NCC(O)CO)c(I)c(C(=O)N(C)CC(O)CO)c1I (stereo not shown) [Iopromide]	9.5 cP	15 g I/kg	770 mosm/kg H2 O	–	–	–
CC(=O)N(CC(O)CO)c1c(I)c(C(=O)NCCO)c(I)c(C(=O)NCC(O)CO)c1I (stereo not shown) [Ioxilan]	–	15 g I/kg	–	8.1 cP	700 mosm/kg H2 O	Greatest improvement of viscosity within the previously known five contrast media ([1]; Iohexol/Ioxilan (Ioxilan versus Iohexol)): 22.9%
